The numbers were not newly measured in patent US20040176378A1, “Compositions of a cyclooxygenase-2 selective inhibitor and an amphetamine for the treatment of reduced blood flow to the central nervous system” (Pharmacia Corporation, priority 2003, published 2004), which cites them from elsewhere.

For series [1], the system named is infarcted rats.
The subject of series [2] is human stroke victims. As to conditions: coupled with physical therapy, compared to stroke victims receiving only physical therapy.

`CC(N)Cc1ccccc1` (centres unmarked) [amphetamine]: the alternative circuit activation result in series [1] is recorded as “promoted alternative circuit activation”. Moreover, the motor recovery entry in series [2] is reported as “accelerated motor recovery”.
